Test results from US20260199213A1, “PEPTIDE HAVING ACTIVITY OF IMPROVING STATE OF SKIN, AND USE THEREOF” (CAREGEN CO., LTD., priority 2022, published 2026).

Columns and labels:
[1] = tested on: fibronectin; test: Fibronectin expression by RT-PCR in NIH3T3 cells; format: cell-based
Experimental: (§1) In this example, the aim was to confirm the effect of the peptide according to an example on improving endogenous skin aging, including improvement of wrinkles and enhancement of elasticity, etc., by evaluating the expression levels of collagen type 1 (Col1a1), fibronectin, elastin, and hyaluronic acid, which are known components of the dermis.
(§2) Specifically, NIH3T3 cells were seeded in a 6-well plate at a density of 3×10^5 cells/well and cultured for 24 hours. Next, the cells were washed once with serum-free DMEM media, and 10 μM, 50 μM or 1000 μM of a peptide consisting of an amino acid sequence of SEQ ID NO: 1 was dispensed into 1 mL of the serum-free media, and cultured in a CO2 incubator at 37° C. for 24 hours. Next, the culture was washed twice with PBS, and RNA was isolated from the culture using easy blue (iNtRON, Cat. No.: 17061, Korea). Next, using an RT kit (Enzynomics, Cat. NO.: RT200, Korea), the isolated RNA was reverse transcribed to synthesize the respective cDNA. Next, using the synthesized 1 ug cDNA, primers for Colla1, fibronectin, or elastin, and a PCR kit (Enzynomics, Cat. No.: P581T, Korea), polymerase chain reaction (PCR) was performed. Meanwhile, in this example, an untreated group was used as a control group, and a group to which […] was added was used as a positive control group, the nucleotide sequences of the primers used in this example are shown in Table 2 below.
(§3) In this example, the aim was to more specifically compare the effects of peptides according to an embodiment on improving intrinsic skin aging. To this end, a peptide consisting of an amino acid sequence of SEQ ID NO: 2, 3, or 4 having a sequence similar to a peptide according to an embodiment was set as a comparison group, and the expression levels of fibronectin and elastin were evaluated and compared in the same manner as in Example 2-1. […]

[2] = tested on: procollagen I alpha; test: Procollagen I alpha protein level by Collagen ELISA in NIH3T3 cells; format: cell-based; conditions: 10 μM, 50 μM or 1000 μM peptide, 72 hours
Experimental: (§4) Additionally, to evaluate the expression levels of procollagen I alpha and hyaluronic acid at the protein level, NIH3T3 cells or HaCaT cells were seeded at a density of 1×10^4 cells/well in 24-well plates and then cultured for 24 hours. Next, the cells were washed once with serum-free DMEM media, and 10 μM, 50 μM or 1000 μM of the peptide consisting of the amino acid sequence of SEQ ID NO: 1 was dispensed into 2 mL of the serum-free media, and cultured in a CO2 incubator at 37° C. for 72 hours. Next, the culture was centrifuged to settle the suspended matter, and the supernatant was transferred to an e-tube. Next, Collagen ELISA (abcam, Cat No.: ab210579, UK) and HA ELISA (ECHELON biosciences, Cat No.: K-1200, USA) were performed on the centrifuged culture. Meanwhile, in this example, an untreated group was used as the control group, and a group to which TGF-β1 or EGF was added was used as the positive control group.

[3] = tested on: B16F10 cells; test: Melanin production in α-MSH-stimulated B16F10 cells; format: cell-based, mouse; conditions: 200 ng/ml α-MSH, 50 μM or 100 μM peptide, 72 hours, absorbance at 450 nm
Experimental: B16F10 cells, a mouse melanoma cell line, were seeded at a density of 5×10^4 cells/well in a 6-well plate and cultured for 16 hours. Next, the culture medium was replaced with a medium including a 2% serum, and 200 ng/ml of α-MSH (α-melanocyte-stimulating hormones) was added to promote melanin production, in addition, 50 μM or 100 μM of each peptide consisting of the amino acid sequence of SEQ ID NO: 1 was added, and then cultured for 72 hours. Next, the cultured cells were dissolved with 1N NaOH and the absorbance at 450 nm was measured. Meanwhile, an untreated group (Con) was used as the control group, a group to which only α-MSH was added was used as the negative control group, a group to which the peptide consisting of the amino acid sequence of SEQ ID NO: 2 or 3 and α-MSH were added (50 μM, 100 μM) as the comparison group, and a group to which Arbutin (200 μM, 500 μM), known as a skin whitening agent, and α-MSH were added was used as the positive control group.

[4] = tested on: elastin; test: Elastin expression by RT-PCR in NIH3T3 cells; format: cell-based
Experimental: as §1, §2, §3

[5] = tested on: SIRT-1; test: SIRT-1 expression reduced by ultraviolet rays in HaCaT cells (RT-PCR); format: cell-based; conditions: 15 mJ/cm^2 UV, 10 μM, 50 μM or 1000 μM peptide, 8 hours
Experimental: In this example, the aim was to confirm the effect of the peptide according to an embodiment on the recovery of skin barrier factors in damaged skin cells by evaluating changes in the levels of skin barrier factors in skin cells reduced by ultraviolet irradiation.
Specifically, HaCaT cells were seeded in a 6-well plate at a density of 5×10^5 cells/well and cultured for 24 hours. Next, the cells were washed once with serum-free DMEM media, and 10 μM, 50 μM or 1000 μM of the peptide consisting of the amino acid sequence of SEQ ID NO: 1 was dispensed into 1 mL of the serum-free media, and cultured in a CO2 incubator at 37° C. for 1 hour. Next, the above culture was transferred to an e-tube, mixed with 1 ml of PBS, and dispensed into a well plate. Next, using a UV irradiator (VILBER LOURMAT, Cat No.: 3102-BSU, France), 15 mJ/cm^2 ultraviolet rays were irradiated to the HaCaT cells. Next, the PBS in the well plate was removed, 900 μL of the culture medium in which the peptides were dispensed was added, and the plate was cultured in a CO2 incubator at 37° C. for 8 hours. Next, the culture was washed twice with PBS, and RNA was isolated from the culture using easy blue (iNtRON, Cat. No.: 17061, Korea). Next, using an RT kit (Enzynomics, Cat. NO.: RT200, Korea), the isolated RNA was reverse transcribed to synthesize the respective cDNA. […]

[6] = tested on: hyaluronic acid; test: Hyaluronic acid level by HA ELISA in HaCaT cells; format: cell-based; conditions: 10 μM, 50 μM or 1000 μM peptide, 72 hours
Experimental: as §4

[7] = 10 μM, 50 μM or 1000 μM peptide, 24 hours, PCR, vs untreated group
[8] = comparison experiment, FIG. 5 and FIG. 6
[9] = vs peptides of SEQ ID NO: 2, 3, or 4 (50 μM, 100 μM)

Question: Which expression of fibronectin [1, 7] does the source give for GPRGDP [SEQ ID NO: 1] here?
Answer: Its expression of fibronectin is “increased”.

Question: What about the “expression of fibronectin (Example 2-2)” value [1, 8] of the same substance?
Answer: Its value is “increased”.

Question: And the “fibronectin expression effect compared to the comparison group” value [1, 9]?
Answer: Its value is “superior”.

Question: And the “expression of procollagen I alpha at the protein level” value [2]?
Answer: Its value is “increased”.

Question: And the melanin production [3]?
Answer: Its melanin production is “decreased”.

Question: What about the expression of elastin [4, 7] of the same substance?
Answer: Its expression of elastin is “increased”.

Question: And the “expression of elastin (Example 2-2)” value [4, 8]?
Answer: Its value is “increased”.

Question: And the “elastin expression effect compared to the comparison group” value [4, 9]?
Answer: Its value is “superior”.

Question: And the “expression of SIRT-1 reduced by ultraviolet irradiation” value [5]?
Answer: Its value is “increased or restored”.

Question: What about the “expression of hyaluronic acid at the protein level” value [6] of the same substance?
Answer: Its value is “increased”.
